The values that follow come from US20190255083A1 (priority 2011, published 2019).

Assay [1] relates to mixed microbiota of three infants (fecal slurry). Kind of assay: Anaerobic culture of infant fecal microbiota with oligosaccharide substrate. The assay is classed as cell-based, human infant feces. As to conditions: 24 h. The method, then:
First, the impact of 2′-FL and HMO were examined on fresh samples of mixed microbiota of three infants. A carbohydrate-free basal medium was prepared according to Hughes (Hughes S, et al. 2008 FEMS Microbiol Ecol, 64(3): 482-93) to study the growth of fecal bacteria during fermentation of human milk oligosaccharides (HMO) or 2′-FL. This basal medium contained per liter: 2 g peptone (Oxoid Ltd., Basingstoke, UK), 2 g yeast extract (Oxoid), 0.1 g NaCl, 0.04 g K2HPO4, 0.01 g MgSO4.7H2O, 0.01 g CaCl2.6H2O, 2 g NaHCO3, 0.005 g haemin (Sigma), 0.5 g L-cysteine HCl (Sigma), 0.5 g bile salts (Oxoid), 2 ml Tween 80, 10 μl vitamin K (Sigma), and 4 ml of 0.025% (w/v) resazurin solution. Anaerobic culture methods were those described in Bryant (Bryant, M 1972 Am J Clin Nutr, 25(12): 1324-8) using Hungate culture tubes, sealed with butyl rubber septa. Media were prepared and maintained anaerobically using O2-free CO2.
Fresh fecal samples were collected from three healthy babies, identified as A, B and C, who had not received antibiotics or pre/probiotics and had no history of gastrointestinal disorder. Fresh human infant feces were added to phosphate-buffered sterile anaerobic saline solution (1:10 feces to saline), mixed in a blender for 60 s, homogenized and filtered through a double layer of sterile cheesecloth. 2 g/L 2′FL and 5 g/L HMO were dissolved for 1 hour in medium before inoculation with 10% (v/v) fecal slurry prepared as above. Hungate tubes containing 2′-FL or HMO were inoculated with fecal material, serving as the treatment. Hungate tubes containing no substrate were also inoculated with feces, to serve as negative control. All tubes were incubated at 37° C. Culture supernatant samples were taken at 24 h. All samples were stored at −20° C. for further analysis. FIGS. 1, 2 and 3 show the results. Prebiotics are associated with an increase in the numbers of microbiota, especially bifidobacteria and lactobacilli, a decrease in gut pH, and an increase in lactic acid. […] These changes are all characteristic of prebiotics.

In assay [2] the test system is purified bacterial strains isolated from human microbiota (Table 1: Bifidobacterium longum, Bacteroides vulgatus, Bacteroides fragilis, Clostridium …). It counts as cell-based, bacterial isolates, mainly from human (infant) feces. As to conditions: for growth (optical density, OD 600 nm) of individual bacterial isolates / final culture pH of individual bacterial isolates: 2 g/L 2′-FL, 3-FL, LDFT or FOS, 5 g/L HMOS, ZMB1 medium, for most of these bacteria; for growth (optical density, OD 600 nm) of individual bacterial isolates / final culture pH of individual bacterial isolates / decrease in culture pH compared with FOS: 48 h; for growth (optical density, OD 600 nm) of individual bacterial isolates: anaerobic, 37° C.; for decrease in culture pH compared with FOS: 2 g/L each, in most cases; for production of lactic acid: summary statement, for FOS: fecal slurrys and individual bacteria of the human microbiome.

In assay [3] the test system is pathogenic strains of Campylobacter. As to conditions: background statement; cited from earlier work.

Turning to 2′-fucosyllactose [2′-FL], in assay [1] (2′-FL 2 g/L, HMOS 5 g/L, three microbial communities, FIG. 2), the “pH of infant microbiota cultures” value is “pH is reduced”. In addition, in assay [1] (2′-FL 2 g/L, HMOS 5 g/L, three microbial communities, compared to controls, FIG. 3), the “lactic acid produced in infant microbiota cultures” value was “significantly higher amounts of lactic acid are produced compared to controls”. Moreover, the “total bacteria (bacterial growth) in infant microbiota cultures” value in assay [1] (2′-FL at 2 g/L, HMOS at 5 g/L, fecal slurry of 3 infants (A, B, C), 37° C., anaerobic, vs no-substrate control, FIG. 1) is reported as “induced an increase in total bacteria”. In assay [2], the “growth (optical density, OD 600 nm) of individual bacterial isolates” value was “growth was stimulated (to various degrees)”; the “final culture pH of individual bacterial isolates” value is given as “the pH of cultures decreased”; the “decrease in culture pH compared with FOS” value is “at least as great”; the “production of lactic acid” value is “induce the production of lactic acid”. Also, the “Campylobacter binding and infectivity” value in assay [3] was “inhibited”.
On to lactodifucotetraose [LDFT], for which, in assay [2], the “growth (optical density, OD 600 nm) of individual bacterial isolates” value is reported as “growth was stimulated (to various degrees)”; the “final culture pH of individual bacterial isolates” value is “the pH of cultures decreased”; the “decrease in culture pH compared with FOS” value was “at least as great”; the “production of lactic acid” value is given as “induce the production of lactic acid”.
In the same order, the values of 3-fucosyllactose [3-FL] are “growth was stimulated (to various degrees)”, “the pH of cultures decreased”, “at least as great” and “induce the production of lactic acid”.
